# Where “and” joins values, the source holds several entries; their conditions need not be identical. Equal values may be shown once. Read-outs that look alike come from different tables or passages of the source.
# How the values were obtained:
# frozen buccal tissue = assay: Ex vivo permeation model of octreotide with permeation enhancers (Franz diffusion cell)
# Description: The Franz diffusion cell apparatus consists of two chambers separated by a membrane of, for example, animal or human skin. The test product is applied to the membrane via the top chamber. The bottom chamber contains fluid from which samples are taken at regular intervals for analysis to determine the amount of active that has permeated the membrane at set time points.
# Applicants performed an ex vivo screening of permeation enhancers of octreotide delivery. Ex vivo porcine tissue was used, with a tissue thickness 300 um, 3 mg of octreotide and a time of up to 6 hours.
# [1] = Octreotide compatibility of permeation enhancers (solubility without precipitation)
# [2] = Octreotide degradation on buccal tissue with microneedle application; assay type: in vitro ADME; conditions: 4 hours at 37 degrees C.
# Protocol: As shown in the Table below, the buccal tissue was subjected to microneedle application (10 times) and incubated with octreotide solution (2 ml, 1 mg/ml) for 4 hours at 37 degrees C.
# buccal tissue = assay: HIFU as physical permeation enhancer, ex vivo permeation through full thickness tissue; assay type: in vitro ADME; conditions: HIFU 30 seconds (180 watts, duty cycle 5%, PRF 10 Hz), two hours
# Description: In one example, the inventors used High Intensity Focused Ultrasound (HIFU) as physical permeation enhancer. HIFU can have mechanical, cavitational or thermal effects on the tissue depending on the Ultrasound parameters such as intensity, duty cycle, pulse repetition frequency and the exposure time. In this experiment, the buccal tissue was subjected to HIFU for 30 seconds (power of 180 watts, duty cycle 5%, PRF of 10 Hz) octreotide permeation through the tissue was monitored for two hours in the ex vivo permeation model described earlier (except using full thickness tissue which includes connective tissue of the sub-mucosa).
# [3] = POC study in mini pigs, octreotide solution on buccal/sublingual mucosa after microneedles; assay type: in vivo; conditions: pig, blood; for AUC / Cmax / bioavailability: 12 mg
# Description: Solutions were placed after scraping off mucin using a spatula and then treating the area with microneedles (750 um for buccal and 500 um for sublingual). Methocel (40% in water was used as a glue to attach the holder keeping the solution on to the tissue. The test material was colored so that any loss of drug during the experimental set up could be easily monitored.
# [4] = as above; assay type: in vivo; conditions: pig, blood, iv, 100 ug, 100 μg I.V.
# [5] = octreotide flux, enhancer 10 Wt %, frozen buccal tissue 300 um
# [6] = octreotide permeation, 10% w/w, Octreotide soluble after vigorous stirring
# [7] = 10% w/w, Octreotide soluble after vigorous stirring
# [8] = 12 mg solution with 5 wt % DDTMAB applied to disrupted buccal mucosa
# [9] = 12 mg with 5 wt % DDTMAB applied to disrupted sublingual mucosa
molecule,measurement,setting,value
CN1CCCC1=O [1-Methyl 2-Pyrrolidone],Average flux,"frozen buccal tissue; pig, 5 Wt %",0.08 ug/cm2*min
O=CC=Cc1ccccc1 [Cinnamaldehyde],Average flux,"frozen buccal tissue; pig, 1 Wt %",0.00 ug/cm2*min
same,Average flux,"frozen buccal tissue; pig, 3 Wt %",0.00 ug/cm2*min
CO[C@H]1CO[C@H]2[C@@H]1OC[C@H]2OC [Dimethyl isosorbide],Average flux,"frozen buccal tissue; octreotide flux, enhancer 5 Wt %, frozen buccal tissue 300 um",0.07 ug/cm2*min
CCCCCCCCCCCC[N+](C)(C)C.[Br-] [Dodecyltrimethylammonium bromide],permeation activity,frozen buccal tissue; aliphatic trimethyl-ammonium bromide surfactants at 1 wt % (FIG. 5),most active
same,Octreotide Compatibility,[1],Yes
same,compatibility with octreotide in terms of solubility without causing precipitation,[1],improved compatibility
O=C(O)CN(CCN(CC(=O)O)CC(=O)O)CC(=O)O [EDTA],Permeation Ranking 0-1-2-3 None-Low-Med-High,frozen buccal tissue; pig,1
same,Average flux,"frozen buccal tissue; pig, 10 Wt %",0.10 ug/cm2*min
O=C(O)CN(CCOCCOCCN(CC(=O)O)CC(=O)O)CC(=O)O [EGTA],Permeation Ranking 0-1-2-3 None-Low-Med-High,frozen buccal tissue,0
"C[C@H](CCC(=O)NCC(=O)[O-])[C@H]1CC[C@H]2[C@@H]3CC[C@@H]4C[C@H](O)CC[C@]4(C)[C@H]3C[C@H](O)[C@]12C.[Na+] [GDC, Sodium glycodeoxycholate]",Average flux,"frozen buccal tissue; octreotide flux, enhancer 0.1 Wt %, frozen buccal tissue 300 um",0.14 ug/cm2*min
same,Average flux,frozen buccal tissue; [5],0.85 ug/cm2*min
same,Permeation Ranking 0-1-2-3 None-Low-Med-High,frozen buccal tissue; [6],2
same,Octreotide Compatibility,[1]; [7],Yes
CCCCCCCCCCCCOC(=O)C[N+](C)(C)C [Glycine Betaine Ester C12],Average flux,frozen buccal tissue,3.14 ug/cm2*min
same,flux,frozen buccal tissue,3-3.5 μg/cm^2*min
same,"biodegradability, quantified by analysis of glycine betaine","biological media (plasma, esterase solution, simulated intestinal fluid, tissue homogenate), 37 degrees C.",highly biodegradable
same,degradability in acidic environment,simulated gastric fluid (pepsin/low pH),not degradable
CCCCCCCCCCCCCCCCOC(=O)C[N+](C)(C)C [Glycine Betaine Ester C16],Average flux,frozen buccal tissue,0.69 ug/cm2*min
same,flux,frozen buccal tissue,3-3.5 μg/cm^2*min
CCCCCCCC/C=C\CCCCCCCCOC(=O)C[N+](C)(C)C [Glycine Betaine Ester C18 (Oleyl)],Average flux,frozen buccal tissue,0.51 ug/cm2*min
same,flux,frozen buccal tissue,3-3.5 μg/cm^2*min
CCCCCCCCCCCCCCCC[N+](C)(C)C.[Br-] [Hexadecyltrimethylammonium bromide],permeation activity,frozen buccal tissue,most active
same,Permeation Ranking 0-1-2-3 None-Low-Med-High,frozen buccal tissue; pig,3
same,Average flux,"frozen buccal tissue; pig, 1 Wt %",1.23 ug/cm2*min
same,compatibility with octreotide in terms of solubility without causing precipitation,[1],improved compatibility
CCCCCC[N+](C)(C)C.[Br-] [Hexyltrimethylammonium bromide],permeation activity,frozen buccal tissue,not active
"CCCCCCCCCCCCCCCCOP(=O)([O-])OCC[N+](C)(C)C [Miltefosine (Hexadecyl Phosphatidyl Choline), reference compound]",Average flux,frozen buccal tissue,0.14 ug/cm2*min
C[C@@H](O)[C@@H]1NC(=O)[C@H](CCCCN)NC(=O)[C@@H](Cc2c[nH]c3ccccc23)NC(=O)[C@H](Cc2ccccc2)NC(=O)[C@@H](NC(=O)[C@H](N)Cc2ccccc2)CSSC[C@@H](C(=O)N[C@H](CO)[C@@H](C)O)NC1=O [Octreotide],flux,frozen buccal tissue; octreotide concentration of 5 mg/ml (FIG. 4),approximately 0.500 ug/cm2*min
same,flux,frozen buccal tissue; octreotide concentration of 15-20 mg/ml (FIG. 4),2.0-2.5 ug/cm2*min
same,"remaining at 4 h, 1 mg/ml",[2]; + Tissue with microneedle (10 times),98%
same,"remaining at 4 h, 1 mg/ml","[2]; buccal tissue incubated with octreotide solution, + Tissue",86%
same,"remaining at 4 h, 1 mg/ml","[2]; control without tissue, control, octreotide solution 2 ml, 1 mg/ml",100%
same,octreotide permeated through the tissue,buccal tissue,~60 µg
CCCCCCCCN1CCCC1=O [Octyl pyrroldone],Average flux,frozen buccal tissue,0.10 ug/cm2*min
CCCCCCCC[N+](C)(C)C.[Br-] [Octyltrimethylammonium bromide],permeation activity,frozen buccal tissue,not active
CCCCCCCC/C=C\CCCCCCCC(=O)O [Oleic acid],Permeation Ranking 0-1-2-3 None-Low-Med-High,frozen buccal tissue; pig,0
same,Average flux,"frozen buccal tissue; pig, 5 Wt %",0.01 ug/cm2*min
Cl.NCCCNCCCCNCCCN [Spermine HCl],Average flux,"frozen buccal tissue; pig, 10 Wt %",0.58 ug/cm2*min
CCCCCCCCCCCCCCO[C@@H]1O[C@H](CO)[C@@H](O[C@H]2O[C@H](CO)[C@@H](O)[C@H](O)[C@H]2O)[C@H](O)[C@H]1O [TDM],Permeation Ranking 0-1-2-3 None-Low-Med-High,frozen buccal tissue,1
CCCCCCCCCCCCCCCC[N+](C)(C)C.[Br-] [drawing 5],Avg Flux,"frozen buccal tissue; pig, 1 wt %",1.31 (1 wt %) μg/cm^2*min
C[C@@H](O)[C@@H]1NC(=O)[C@H](CCCCN)NC(=O)[C@@H](Cc2c[nH]c3ccccc23)NC(=O)[C@H](Cc2ccccc2)NC(=O)[C@@H](NC(=O)[C@H](N)Cc2ccccc2)CSSC[C@@H](C(=O)N[C@H](CO)[C@@H](C)O)NC1=O [octreotide acetate],Tmax,[3]; [8],3 h
same,AUC,[3]; [8],19.8 ng·h/mL
same,Cmax,[3]; [8],4.2 ng/mL
same,bioavailability,[3]; [8],1.11%
same,AUC,[3]; [9],106 ng·h/mL
same,Cmax,[3]; [9],25.6 ng/mL
same,bioavailability,[3]; [9],5.97%
same,AUC,[4],14.8 ng·h/mL
same,Cmax,[4],31 ng/mL
same,Tmax,[4],4 min
Benzalkonium chloride [Benzalkonium chloride (BAC)],Permeation Ranking 0-1-2-3 None-Low-Med-High,frozen buccal tissue,3
Dimethyl-cyclodextrin,Average flux,frozen buccal tissue,0.53 ug/cm2*min
same,Permeation Ranking 0-1-2-3 None-Low-Med-High,frozen buccal tissue,1
Hydroxypropylcyclodextrin,Average flux,frozen buccal tissue,0.15 ug/cm2*min
Sodium Deoxycholate [DOC],Average flux,frozen buccal tissue; [5],0.49 ug/cm2*min and 0.41 ug/cm2*min
same,Permeation Ranking 0-1-2-3 None-Low-Med-High,frozen buccal tissue; [6],1
same,Octreotide Compatibility,[1]; [7],Yes
